Laboratory results: ChEMBL document CHEMBL1201862, “PubChem BioAssay data set” (2004)
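How tested: cells in 96-well plates exposed to compound for 48 hours at five concentrations. Here, GI50 denotes the concentration required for 50% inhibition of growth.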 Calls of active or inactive are those of the source. No stated cut-off is given here; in the data, active = GI50 up to about 1.1 µM and inactive = higher.

Key:
Experiment in all cases: NCI anticancer screen, dose series, 48 h
[1] = test system: A549
[2] = test system: RXF 393
[3] = test system: NCI-H460
[4] = test system: UACC-257
[5] = test system: U-251
[6] = test system: HL-60
[7] = test system: UACC-62
[8] = test system: SW-620
[9] = test system: ACHN
[10] = test system: DU-145
[11] = test system: NCI/ADR-RES
[12] = test system: IGROV-1
[13] = test system: OVCAR-5
[14] = test system: M14
[15] = test system: COLO 205
[16] = test system: CAKI-1
[17] = test system: HCT-116
[18] = test system: A498
[19] = test system: BT-549
[20] = test system: 786-0
[21] = test system: SK-MEL-5
[22] = test system: PC-3
[23] = test system: T47D
[24] = test system: SNB-19
[25] = test system: KM12
[26] = test system: SK-OV-3
[27] = test system: SF-268
[28] = test system: MOLT-4
[29] = test system: SK-MEL-2
[30] = test system: OVCAR-8
[31] = test system: SF-295
[32] = test system: Hs-578T
[33] = test system: LOX IMVI
[34] = test system: MCF7
[35] = test system: MDA-MB-435
[36] = test system: SN12C
[37] = test system: NCI-H23
[38] = test system: HCT-15
[39] = test system: MDA-N
[40] = test system: HOP-62
[41] = test system: MDA-MB-231
[42] = test system: SR
[43] = test system: K562
[44] = test system: SF-539
[45] = test system: OVCAR-3
[46] = test system: UO-31
[47] = test system: EKVX
[48] = test system: Malme-3M
[49] = test system: CCRF-CEM
[50] = test system: SK-MEL-28
[51] = test system: OVCAR-4
[52] = test system: HOP-92
[53] = test system: HCC 2998
[54] = test system: RPMI-8226
[55] = test system: HT-29
[56] = test system: NCI-H522
[57] = test system: TK-10
[58] = test system: NCI-H226
[59] = test system: SNB-75

`COc1ccc(C2C3=C(Nc4ncnn42)c2ccccc2OC3c2ccccc2)cc1` (stereo not given) was tested, and the GI50 [1] was 14.9 µM (inactive), the GI50 [2] was 1.14 µM (inactive) and the GI50 [3] was 27.2 µM (inactive). For the same compound, the GI50 [4] was 70 µM (inactive), the GI50 [5] was 42.3 µM (inactive) and the GI50 [6] was 2.27 µM (inactive). For the same compound, the GI50 [7] was 17.3 µM (inactive), the GI50 [8] was 41.7 µM (inactive) and the GI50 [9] was 18.5 µM (inactive). For the same compound, the GI50 [10] was > 100 µM (inactive), the GI50 [11] was 47.8 µM (inactive) and the GI50 [12] was 27.1 µM (inactive). For the same compound, the GI50 [13] was 89.1 µM (inactive), the GI50 [14] was 61.8 µM (inactive) and the GI50 [15] was 23.7 µM (inactive). For the same compound, the GI50 [16] was 26.5 µM (inactive), the GI50 [17] was 18.9 µM (inactive) and the GI50 [18] was 1.03 µM (active). For the same compound, the GI50 [19] was 5.26 µM (inactive), the GI50 [20] was 47.1 µM (inactive) and the GI50 [21] was 14.9 µM (inactive). The GI50 [22] was 27.4 µM (inactive), the GI50 [23] was 13.7 µM (inactive) and the GI50 [24] was > 100 µM (inactive). The GI50 [25] was 14.6 µM (inactive), the GI50 [26] was 37.5 µM (inactive) and the GI50 [27] was 42.6 µM (inactive). For the same compound, the GI50 [28] was 6.27 µM (inactive), the GI50 [29] was 6 µM (inactive) and the GI50 [30] was 80.2 µM (inactive). For the same compound, the GI50 [31] was 27.8 µM (inactive), the GI50 [32] was 19.1 µM (inactive) and the GI50 [33] was 61.8 µM (inactive). The GI50 [34] was 13.5 µM (inactive), the GI50 [35] was 4.3 µM (inactive) and the GI50 [36] was > 100 µM (inactive). The GI50 [37] was 43.6 µM (inactive), the GI50 [38] was 17.4 µM and the GI50 [39] was 11 µM (inactive). For the same compound, the GI50 [40] was > 100 µM (inactive), the GI50 [41] was 49.1 µM (inactive) and the GI50 [42] was 8.47 µM (inactive). The GI50 [43] was 11 µM (inactive), the GI50 [44] was 40 µM (inactive) and the GI50 [45] was 27.8 µM (inactive). For the same compound, the GI50 [46] was 50.1 µM (inactive).

With `CC(=O)Oc1ccc2cc(-c3ccc(OC(C)=O)c(OC(C)=O)c3)c(=O)oc2c1` the GI50 [47] was 30.4 µM (inactive), the GI50 [1] was 73.6 µM (inactive) and the GI50 [48] was > 100 µM (inactive). For the same compound, the GI50 [49] was 42.1 µM (inactive), the GI50 [50] was 81.7 µM (inactive) and the GI50 [3] was 85.9 µM (inactive). The GI50 [4] was 97.9 µM (inactive), the GI50 [5] was 67.1 µM (inactive) and the GI50 [6] was 30.5 µM (inactive). For the same compound, the GI50 [8] was > 100 µM (inactive), the GI50 [9] was > 100 µM (inactive) and the GI50 [10] was 41.6 µM (inactive). The GI50 [11] was 40.7 µM (inactive), the GI50 [13] was > 100 µM (inactive) and the GI50 [14] was 74.8 µM (inactive). For the same compound, the GI50 [15] was > 100 µM (inactive), the GI50 [51] was 27.1 µM (inactive) and the GI50 [17] was 60.3 µM (inactive). For the same compound, the GI50 [18] was 34.4 µM (inactive), the GI50 [19] was 42.3 µM (inactive) and the GI50 [20] was > 100 µM (inactive). The GI50 [52] was 43.4 µM (inactive), the GI50 [22] was 84.5 µM (inactive) and the GI50 [23] was 24.5 µM (inactive). For the same compound, the GI50 [53] was > 100 µM (inactive), the GI50 [24] was > 100 µM (inactive) and the GI50 [25] was 32.8 µM (inactive). The GI50 [27] was 63.2 µM (inactive), the GI50 [28] was > 100 µM (inactive) and the GI50 [29] was > 100 µM (inactive). For the same compound, the GI50 [30] was > 100 µM (inactive), the GI50 [31] was 52.8 µM (inactive) and the GI50 [32] was 54.2 µM (inactive). The GI50 [33] was > 100 µM (inactive), the GI50 [34] was > 100 µM (inactive) and the GI50 [35] was 61.5 µM (inactive). For the same compound, the GI50 [54] was 39.3 µM (inactive), the GI50 [36] was > 100 µM (inactive) and the GI50 [37] was > 100 µM (inactive). For the same compound, the GI50 [38] was > 100 µM, the GI50 [39] was > 100 µM (inactive) and the GI50 [55] was > 100 µM (inactive). For the same compound, the GI50 [40] was > 100 µM (inactive), the GI50 [41] was > 100 µM (inactive) and the GI50 [42] was 87.7 µM (inactive). For the same compound, the GI50 [43] was 49.8 µM (inactive), the GI50 [56] was 44.4 µM (inactive) and the GI50 [44] was > 100 µM (inactive). The GI50 [57] was 26.5 µM (inactive), the GI50 [45] was 18.4 µM (inactive) and the GI50 [58] was > 100 µM (inactive). For the same compound, the GI50 [46] was 56 µM (inactive).

`COc1ccc(/N=N/C(=O)NC(CC(C)C)C(=O)NC(C)C(=O)O)cc1` (stereo not given) was tested, and the GI50 [47] was 30 µM (inactive), the GI50 [1] was 3.32 µM (inactive) and the GI50 [48] was 29.2 µM (inactive). The GI50 [49] was 6.28 µM (inactive), the GI50 [2] was > 100 µM (inactive) and the GI50 [50] was 17.1 µM (inactive). For the same compound, the GI50 [3] was 9.66 µM (inactive), the GI50 [4] was 23 µM (inactive) and the GI50 [5] was > 100 µM (inactive). For the same compound, the GI50 [6] was 6.22 µM (inactive), the GI50 [7] was 0.968 µM (active) and the GI50 [8] was 16.9 µM (inactive). For the same compound, the GI50 [9] was 1.53 µM (inactive), the GI50 [10] was 6.25 µM (inactive) and the GI50 [11] was > 67.9 µM (inactive). The GI50 [12] was 18.6 µM (inactive), the GI50 [13] was > 100 µM (inactive) and the GI50 [14] was 1.29 µM (inactive). For the same compound, the GI50 [15] was 3.2 µM (inactive), the GI50 [51] was > 69.5 µM (inactive) and the GI50 [59] was > 100 µM (inactive). For the same compound, the GI50 [16] was > 100 µM (inactive), the GI50 [17] was > 34.4 µM (inactive) and the GI50 [18] was > 100 µM (inactive). For the same compound, the GI50 [19] was 52.8 µM (inactive), the GI50 [20] was > 100 µM (inactive) and the GI50 [52] was > 100 µM (inactive). For the same compound, the GI50 [21] was 5.7 µM (inactive), the GI50 [22] was 4.72 µM (inactive) and the GI50 [23] was 3.63 µM (inactive). For the same compound, the GI50 [53] was 4.46 µM (inactive), the GI50 [24] was > 100 µM (inactive) and the GI50 [25] was 29 µM (inactive). For the same compound, the GI50 [27] was > 24.3 µM (inactive), the GI50 [28] was 4.22 µM (inactive) and the GI50 [29] was > 35.8 µM (inactive). For the same compound, the GI50 [30] was > 43.1 µM (inactive), the GI50 [31] was 9.82 µM (inactive) and the GI50 [32] was > 79.3 µM (inactive). For the same compound, the GI50 [33] was 4.68 µM (inactive), the GI50 [34] was 27.5 µM (inactive) and the GI50 [35] was 1.98 µM (inactive). For the same compound, the GI50 [54] was 20.8 µM (inactive), the GI50 [36] was > 20.4 µM (inactive) and the GI50 [37] was > 86.5 µM (inactive). For the same compound, the GI50 [38] was 1.3 µM, the GI50 [39] was 10.8 µM (inactive) and the GI50 [55] was > 40 µM (inactive). For the same compound, the GI50 [40] was > 59.6 µM (inactive), the GI50 [41] was > 23.4 µM (inactive) and the GI50 [42] was 12.7 µM (inactive). For the same compound, the GI50 [43] was 1.54 µM (inactive), the GI50 [44] was 2.04 µM (inactive) and the GI50 [57] was > 29.9 µM (inactive). For the same compound, the GI50 [45] was 28.8 µM (inactive), the GI50 [58] was > 75.2 µM (inactive) and the GI50 [46] was 2.38 µM (inactive).
